Results published in patent US20160296529A1, “AMINOTRIAZOLOPYRIDINE FOR USE IN THE TREATMENT OF INFLAMMATION, AND PHARMACEUTICAL COMPOSITIONS THEREOF” (priority 2012, published 2016).

Experiments:
[1] = Single dose pharmacokinetics in animals, dog; assay type: in vivo, Beagle dogs
Method: (§1) Pharmacokinetic studies were performed in various animal species dosed with the compound according to Formula II to determine the exposure to the compound according to Formula I as well as its apparent terminal half life (T1/2), when possible.
Sprague-Dawley rats (male, 200-250 g), CD1 mice (male, 25-30 g), Beagle dogs (male, 9-10 kg), Göttingen minipigs (male, 10-15 kg) and New Zealand White rabbits (male, 3-5 kg) were acclimatized for at least 7 days before treatment and were kept on a 12 hr light/dark cycle (07 h00-19 h00).
(§2) Temperature was maintained at approximately 22° C., and food and water were provided ad libitum. […]
(§3) The compound according to Formula II was formulated in 0.5% methylcellulose and dosed orally to 3 animals (or 3 mouse/time points) as a single esophageal gavage at dose ranging from 15 to 45 mg/kg under a dosing volume of 5 or 10 mL/kg.
(§4) Blood samples were collected over a 24-h period via the jugular vein (dog, minipig), ear blood vessel (rabbit), cardiac puncture (mouse) or retro-orbital sinus (rat) with lithium heparin as anti-coagulant. Whole blood samples were centrifuged and the resulting plasma samples were stored at −20° C. pending analysis.
(§5) Plasma concentrations of the compound according to Formula I and of the compound according to Formula II were determined by an LC-MS/MS method with a limit of quantification ≦10.0 ng/mL for both Formula I and Formula II for all species.
(§6) Pharmacokinetic parameters were calculated using a statistical analysis package (WinNonLin (Pharsight, Sunnyvale, Calif.: CA 94086, USA).

[2] = Single dose pharmacokinetics in animals, rabbit; assay type: in vivo, New Zealand White rabbits
Method: as §1
Sprague-Dawley rats (male, 200-250 g), CD1 mice (male, 25-30 g), Beagle dogs (male, 9-10 kg), Göttingen minipigs (male, […]) were acclimatized for at least 7 days before treatment and were kept on a 12 hr light/dark cycle (07 h00-19 h00).
as §2, §4, §5, §6

[3] = Target inhibition: circulating levels in healthy volunteers as multiples of whole blood assay IC50; assay type: in vivo, human
Method: The compound according to Formula II was dosed daily in healthy volunteers at 200 mg QD and 100 mg BID.
The resulting levels of Formula II and Formula I were then measured and plotted (FIG. 5) as multiples of their respective IC50 as determined by the Whole Blood assay described above in Example 3.4.

[4] = Single dose pharmacokinetics in human; assay type: in vivo; conditions: for Ratio I/II of exposure (AUC Formula I : AUC Formula II) / AUC: human; for AUC: plasma, po, capsules, read-out: exposure (expressed as AUC)
Method: Serial blood samples were collected over 72 h to determine plasma concentrations of the compounds according to Formula II and Formula I using a validated liquid chromatography-mass spectrometry/mass spectrometry (LC-MS/MS) method with a limit of quantification of 1.00 ng/mL. PK parameters were assessed using a statistical analysis package (WinNonLin (Pharsight, Sunnyvale, Calif.: CA 94086, USA).
Mean plasma concentration-time profiles of the compound according to Formula II and the compound according to Formula I were measured.
In order to show the comparative exposures of the two compounds, the AUC of the compounds according to Formula I and the compound according to Formula II were calculated. The AUC value represents the total exposure of the compound in the species after dosing. These values were then expressed as a ratio of AUC of the compound according to Formula I: AUC of the compound according to Formula II in FIG. 4. From this ratio it can clearly be seen that there was a significant difference in exposure to a compound according to Formula I after administration of a compound according to Formula II in human compared to the exposure seen in animals for therapeutically equivalent doses. Without wanting to be bound by theory, it was believed that this difference was related to the difference in the apparent terminal half-life in the different species.

[5] = Single dose pharmacokinetics in animals, rat; assay type: in vivo, Sprague-Dawley rats
Method: Pharmacokinetic studies were performed in various animal species dosed with the compound according to Formula II to determine the exposure to the compound according to Formula I as well as its apparent terminal half life (T1/2), when possible. […]
Temperature was maintained at approximately 22° C., and food and water were provided ad libitum.
The compound according to […] was formulated in 0.5% methylcellulose and dosed orally to 3 or 6 animals as a single esophageal gavage at dose ranging from 15 to 180 mg/kg under a dosing volume of 5 or 10 mL/kg.
as §3, §4, §5, §6

[6] = after Formula II 10 mg single dose
[7] = after Formula II 25 mg single dose
[8] = after Formula II 50 mg single dose
[9] = after Formula II 100 mg single dose
[10] = after Formula II 200 mg single dose

Nc1nc2cccc(-c3ccc(CN4CCS(=O)(=O)CC4)cc3)n2n1 [Formula I, 5-[4-(1,1-Dioxothiomorpholin-4-ylmethyl)-phenyl]-[1,2,4]triazolo[1,5-a]pyridin-2-ylamine]
half-life ([1]; Beagle, plasma, 10 mg/kg, male, administration of Formula I, oral, read-out: Apparent terminal half life (converted)): 9 h
AUC ([1]; Beagle, plasma, male, Formula I 10 mg/kg single oral dose, read-out: AUC): 49.4 µg·h/mL
AUC ([1]; Beagle, plasma, male, Formula I 25 mg/kg single oral dose, read-out: AUC): 114 µg·h/mL
AUC ([1]; Beagle, plasma, male, Formula I 50 mg/kg single oral dose, read-out: AUC): 290 µg·h/mL
Ratio I/II of exposure (AUC Formula I : AUC Formula II) ([1]; after Formula II 15 mg/kg oral): 0.24
AUC ([1]; male, Beagle, plasma, after Formula II 15 mg/kg oral, read-out: exposure (expressed as AUC)): 10.6 µg·h/mL
AUC ([2]; New Zealand White, plasma, female, Formula I 125 mg/kg single oral dose, read-out: AUC): 777 µg·h/mL
AUC ([2]; New Zealand White, plasma, female, Formula I 250 mg/kg single oral dose, read-out: AUC): 1030 µg·h/mL
Ratio I/II of exposure (AUC Formula I : AUC Formula II) ([2]; after Formula II 20 mg/kg oral): 0.38
AUC ([2]; male, New Zealand White, plasma, after Formula II 20 mg/kg oral, read-out: exposure (expressed as AUC)): 10 µg·h/mL
half-life ([2]; male, New Zealand White, plasma, oral, upon administration of Formula II, read-out: apparent terminal elimination half-life (converted)): 4.6 h
Ratio [blood circulating dose]/[circulating dose at IC50 quantity] ([3]; Formula II at 100 mg BID, time point 0 h): 0.97
Ratio [blood circulating dose]/[circulating dose at IC50 quantity] ([3]; Formula II at 100 mg BID, time point 0.5 h): 0.93
Ratio [blood circulating dose]/[circulating dose at IC50 quantity] ([3]; Formula II at 100 mg BID, time point 1 h): 0.88
Ratio [blood circulating dose]/[circulating dose at IC50 quantity] ([3]; Formula II at 100 mg BID, time point 2 h): 0.97
Ratio [blood circulating dose]/[circulating dose at IC50 quantity] ([3]; Formula II at 100 mg BID, time point 3 h): 1.00
Ratio [blood circulating dose]/[circulating dose at IC50 quantity] ([3]; Formula II at 100 mg BID, time point 5 h): 1.13
Ratio [blood circulating dose]/[circulating dose at IC50 quantity] ([3]; Formula II at 100 mg BID, time point 8 h): 0.96
Ratio [blood circulating dose]/[circulating dose at IC50 quantity] ([3]; Formula II at 100 mg BID, time point 12 h): 0.86
Ratio [blood circulating dose]/[circulating dose at IC50 quantity] ([3]; Formula II at 100 mg BID, time point 12.5 h): 0.93
Ratio [blood circulating dose]/[circulating dose at IC50 quantity] ([3]; Formula II at 100 mg BID, time point 13 h): 0.88
Ratio [blood circulating dose]/[circulating dose at IC50 quantity] ([3]; Formula II at 100 mg BID, time point 14 h): 0.97
Ratio [blood circulating dose]/[circulating dose at IC50 quantity] ([3]; Formula II at 100 mg BID, time point 15 h): 1.00
Ratio [blood circulating dose]/[circulating dose at IC50 quantity] ([3]; Formula II at 100 mg BID, time point 17 h): 1.13
Ratio [blood circulating dose]/[circulating dose at IC50 quantity] ([3]; Formula II at 100 mg BID, time point 20 h): 0.96
Ratio [blood circulating dose]/[circulating dose at IC50 quantity] ([3]; Formula II at 100 mg BID, time point 24 h): 0.86
Ratio [blood circulating dose]/[circulating dose at IC50 quantity] ([3]; Formula II at 200 mg QD, time point 0 h): 0.69
Ratio [blood circulating dose]/[circulating dose at IC50 quantity] ([3]; Formula II at 200 mg QD, time point 0.5 h): 0.65
Ratio [blood circulating dose]/[circulating dose at IC50 quantity] ([3]; Formula II at 200 mg QD, time point 1 h): 0.69
Ratio [blood circulating dose]/[circulating dose at IC50 quantity] ([3]; Formula II at 200 mg QD, time point 2 h): 0.84
Ratio [blood circulating dose]/[circulating dose at IC50 quantity] ([3]; Formula II at 200 mg QD, time point 3 h): 0.96
Ratio [blood circulating dose]/[circulating dose at IC50 quantity] ([3]; Formula II at 200 mg QD, time point 5 h): 1.00
Ratio [blood circulating dose]/[circulating dose at IC50 quantity] ([3]; Formula II at 200 mg QD, time point 8 h): 0.93
Ratio [blood circulating dose]/[circulating dose at IC50 quantity] ([3]; Formula II at 200 mg QD, time point 24 h): 0.84
apparent terminal half life in human relative to the other animal species ([4]; human vs other animal species, in vivo): at least 3 fold
Ratio I/II of exposure (AUC Formula I : AUC Formula II) [4, 6]: 22.58
Ratio I/II of exposure (AUC Formula I : AUC Formula II) [4, 7]: 21.81
Ratio I/II of exposure (AUC Formula I : AUC Formula II) [4, 8]: 19.86
Ratio I/II of exposure (AUC Formula I : AUC Formula II) [4, 9]: 15.92
Ratio I/II of exposure (AUC Formula I : AUC Formula II) [4, 10]: 12.8
half-life ([4]; oral, human plasma, single dose (10-200 mg) of Formula II as capsules, read-out: mean apparent terminal elimination half-life): 21 to 27 h
AUC [4, 6]: 2.89 µg·h/mL
AUC [4, 7]: 7.22 µg·h/mL
AUC [4, 8]: 14.6 µg·h/mL
AUC [4, 9]: 26.9 µg·h/mL
AUC [4, 10]: 57.6 µg·h/mL
half-life ([5]; Sprague-Dawley, plasma, 20 mg/kg, administration of Formula I, oral, read-out: Apparent terminal half life (converted)): 7 h
AUC ([5]; Sprague-Dawley, plasma, female, Formula I 20 mg/kg single oral dose, read-out: AUC): 25.2 µg·h/mL
AUC ([5]; Sprague-Dawley, plasma, female, Formula I 60 mg/kg single oral dose, read-out: AUC): 123 µg·h/mL
AUC ([5]; Sprague-Dawley, plasma, female, Formula I 180 mg/kg single oral dose, read-out: AUC): 541 µg·h/mL
AUC ([5]; Sprague-Dawley, plasma, male, Formula I 20 mg/kg single oral dose, read-out: AUC): 19.7 µg·h/mL
AUC ([5]; Sprague-Dawley, plasma, male, Formula I 60 mg/kg single oral dose, read-out: AUC): 102 µg·h/mL
AUC ([5]; Sprague-Dawley, plasma, male, Formula I 180 mg/kg single oral dose, read-out: AUC): 376 µg·h/mL
Ratio I/II of exposure (AUC Formula I : AUC Formula II) ([5]; after Formula II 45 mg/kg oral): 0.40
AUC ([5]; male, Sprague-Dawley, plasma, after Formula II 45 mg/kg oral, read-out: exposure (expressed as AUC)): 13.3 µg·h/mL
